Here are results for four molecules from ChEMBL document CHEMBL3044676, “Effect of Antibiotics on Formation of Aerial Mycelium and Production of Phytotoxins in Streptomyces spp” (2003).

SMILES strings stand for the structures. Active and inactive are the calls of the source. No cut-off for these calls is given here. Some results are limits rather than exact numbers.

In experiment [1] the test system is Streptomyces acidiscabies. Put plainly: Reduction in concanamycins A and B production in Streptomyces acidiscabies ATCC 4900315 at 1.5 ug/ml after 5 days relative to untreated control. In kind it is functional, organism-based.
For experiment [2], the system named is Streptomyces acidiscabies. In words: Reduction in thaxtomin A production in Streptomyces acidiscabies ATCC 4900315 at 1.5 ug/ml after 5 days relative to untreated control. In kind it is functional. More on the design: scale not given: the % may be the effect or the level left.
Experiment [3] deals with Streptomyces scabiei. Put plainly: Reduction in concanamycins A and B production in Streptomyces scabiei ATCC 4917314 at 1.2 ug/ml after 5 days relative to untreated control. In kind it is functional. Details: scale not given: the % may be the effect or the level left.
The subject of experiment [4] is Streptomyces scabiei. Put plainly: Reduction in thaxtomin A production in Streptomyces scabiei ATCC 4917314 at 1.2 ug/ml after 5 days relative to untreated control. It counts as functional. More on the design: scale not given: the % may be the effect or the level left.
The subject of experiment [5] is Streptomyces scabiei. In words: Antimicrobial activity against Streptomyces scabiei ATCC 4917314 assessed as mycelial weigh change at 1.2 ug/ml after 5 days relative to untreated control. It counts as functional.
Experiment [6] relates to Streptomyces alboniger. In words: Antimicrobial activity against Streptomyces alboniger IFO 12738 assessed as inhibition of aerial mycelial growth at 0.04 ug/disk after 5 days by paper disk method. It counts as functional, organism-based.
Experiment [7] concerns Streptomyces alboniger. Put plainly: Antimicrobial activity against Streptomyces alboniger IFO 12738 assessed as inhibition of aerial mycelial growth at 0.4 ug/disk after 5 days by paper disk method. It counts as functional.
The test system of experiment [8] is Streptomyces alboniger. In words: Antimicrobial activity against Streptomyces alboniger IFO 12738 assessed as inhibition of aerial mycelial growth at 4 ug/disk after 5 days by paper disk method. It counts as functional.
The test system of experiment [9] is Streptomyces acidiscabies. In words: Antimicrobial activity against Streptomyces acidiscabies ATCC 4900315 assessed as mycelial weigh change at 1.5 ug/ml after 5 days relative to untreated control. In kind it is functional.
The subject of experiment [10] is Streptomyces acidiscabies. Put plainly: Antimicrobial activity against Streptomyces acidiscabies ATCC 4900315 assessed as inhibition of growth at 4 ug/disk after 5 days by paper disk method. In kind it is functional. The settings on record: for zone of inhibition at 4 µg/disc: ATCC 4900315, 120 h, read-out: DIZ.
Experiment [11] relates to Streptomyces acidiscabies. Put plainly: Antimicrobial activity against Streptomyces acidiscabies ATCC 4900315 assessed as inhibition of aerial mycelial growth at 0.4 ug/disk after 5 days by paper disk method. The settings on record: for zone of inhibition at 0.4 µg/disc: ATCC 4900315, 120 h, read-out: DIZ. It counts as functional.
Experiment [12] relates to Streptomyces acidiscabies. In words: Antimicrobial activity against Streptomyces acidiscabies ATCC 4900315 assessed as inhibition of aerial mycelial growth at 0.04 ug/disk after 5 days by paper disk method. It counts as functional.
The test system of experiment [13] is Streptomyces acidiscabies. Put plainly: Antimicrobial activity against Streptomyces acidiscabies ATCC 4900315 assessed as inhibition of aerial mycelial growth at 4 ug/disk after 5 days by paper disk method. In kind it is functional. The settings on record: ATCC 4900315, 120 h, read-out: DIZ.
Experiment [14] relates to Streptomyces scabiei. In words: Antimicrobial activity against Streptomyces scabiei ATCC 4917314 assessed as inhibition of aerial mycelial growth at 0.04 ug/disk after 5 days by paper disk method. In kind it is functional. The settings on record: for zone of inhibition at 0.04 µg/disc: ATCC 4917314, 120 h, read-out: DIZ.
Experiment [15] concerns Streptomyces scabiei. Put plainly: Antimicrobial activity against Streptomyces scabiei ATCC 4917314 assessed as inhibition of growth at 4 ug/disk after 5 days by paper disk method. It counts as functional. The settings on record: ATCC 4917314, 120 h, read-out: DIZ.
For experiment [16], the system named is Streptomyces scabiei. Put plainly: Antimicrobial activity against Streptomyces scabiei ATCC 4917314 assessed as inhibition of aerial mycelial growth at 4 ug/disk after 5 days by paper disk method. It counts as functional. The settings on record: ATCC 4917314, 120 h, read-out: DIZ.
Experiment [17] deals with Streptomyces scabiei. In words: Antimicrobial activity against Streptomyces scabiei ATCC 4917314 assessed as inhibition of aerial mycelial growth at 0.40 ug/disk after 5 days by paper disk method. In kind it is functional. The conditions noted are these: for zone of inhibition at 0.4 µg/disc: ATCC 4917314, 120 h, read-out: DIZ.
The subject of experiment [18] is Streptomyces alboniger. Put plainly: Antimicrobial activity against Streptomyces alboniger IFO 12738 assessed as inhibition of growth at 0.4 ug/disk after 5 days by paper disk method. In kind it is functional. The settings on record: IFO 12738, 120 h, read-out: DIZ.
In experiment [19] the test system is Streptomyces scabiei. In words: Antimicrobial activity against Streptomyces scabiei ATCC 4917314 assessed as inhibition of growth at 0.4 ug/disk after 5 days by paper disk method. It counts as functional.
Experiment [20] has as its system Streptomyces acidiscabies. In words: Reduction in concanamycins A and B production in Streptomyces acidiscabies ATCC 4900315 at 0.45 ug/ml after 5 days relative to untreated control. It counts as functional, organism-based.
For experiment [21], the system named is Streptomyces acidiscabies. In words: Reduction in thaxtomin A production in Streptomyces acidiscabies ATCC 4900315 at 0.45 ug/ml after 5 days relative to untreated control. In kind it is functional. More on the design: scale not given: the % may be the effect or the level left.
For experiment [22], the system named is Streptomyces scabiei. In words: Reduction in concanamycins A and B production in Streptomyces scabiei ATCC 4917314 at 3.6 ug/ml after 5 days relative to untreated control. In kind it is functional. Details: scale not given: the % may be the effect or the level left.
In experiment [23] the test system is Streptomyces scabiei. Put plainly: Reduction in thaxtomin A production in Streptomyces scabiei ATCC 4917314 at 3.6 ug/ml after 5 days relative to untreated control. It counts as functional. More on the design: scale not given: the % may be the effect or the level left.
The subject of experiment [24] is Streptomyces acidiscabies. Put plainly: Antimicrobial activity against Streptomyces acidiscabies ATCC 4900315 assessed as mycelial weigh change at 0.45 ug/ml after 5 days relative to untreated control. It counts as functional.
The subject of experiment [25] is Streptomyces scabiei. Put plainly: Antimicrobial activity against Streptomyces scabiei ATCC 4917314 assessed as mycelial weigh change at 3.6 ug/ml after 5 days relative to untreated control. In kind it is functional.
Setting [26] is: IFO 12738, 120 h, read-out: DIZ.

`CN(C)[C@@H]1C(O)=C(C(N)=O)C(=O)[C@@]2(O)C(O)=C3C(=O)c4c(O)ccc(Cl)c4[C@@](C)(O)[C@H]3C[C@@H]12` [CHLORTETRACYCLINE]: the Activity result in experiment [1] is listed as “Below limit of detection”; in [2], less than 10%; in the experiment with Streptomyces scabiei [3], 0.1%; with Streptomyces scabiei [4] it was 0.6%; with Streptomyces scabiei [5] it was 2.1%; in [9], 6.8%. The “diameter of the inhibition zone (DIZ)” value in the experiment on Streptomyces alboniger [6], in the experiment with Streptomyces alboniger [7] and with Streptomyces alboniger [8] was “inactive” each time. Besides, the zone of inhibition at 4 µg/disc in experiment [10] was found to be 16 mm; in [13] it was 35 mm; with Streptomyces scabiei [15], 19 mm; in the experiment on Streptomyces scabiei [16] it was 27 mm. Besides, the results for the zone of inhibition at 0.4 µg/disc (in [11]; with Streptomyces scabiei [17]) were 19 mm and 20 mm, respectively. Besides, the zone of inhibition at 0.04 µg/disc came to 11 mm in experiment [12] (ATCC 4900315, 120 h, read-out: DIZ) and 11 mm in the experiment with Streptomyces scabiei [14].

With `CO[C@H]1/C=C/O[C@@]2(C)Oc3c(C)c(O)c4c(O)c(cc(O)c4c3C2=O)NC(=O)/C(C)=C\C=C\[C@H](C)[C@H](O)[C@@H](C)[C@@H](O)[C@@H](C)[C@H](OC(C)=O)[C@@H]1C` [RIFAMYCIN], the “diameter of the inhibition zone (DIZ)” value (in the experiment on Streptomyces alboniger [6]; in experiment [10]; in [11]; in experiment [12]; in the experiment with Streptomyces scabiei [19]; in the experiment on Streptomyces scabiei [14]) was “inactive” in each case. Further, in the experiment with Streptomyces scabiei [17], the “diameter of the inhibition zone (DIZ)” value is “inactive”. Also, the results for the zone of inhibition at 0.4 µg/disc in the experiment with Streptomyces alboniger [18] and in the experiment on Streptomyces alboniger [7] (setting [26]) were 11 mm and 21 mm, respectively. Also, the zone of inhibition at 4 µg/disc in experiment [13] turned out to be 12 mm; in the experiment with Streptomyces scabiei [16], 11 mm.

As to `CN[C@@H]1[C@H](O)[C@H](NC)[C@H]2O[C@@]3(O)C(=O)C[C@@H](C)O[C@H]3O[C@@H]2[C@H]1O` [SPECTINOMYCIN], the Activity entry in experiment [20] was “Below limit of detection”; in experiment [21], 59%; in the experiment with Streptomyces scabiei [22], 1.1%; in the experiment with Streptomyces scabiei [23], 0.8%; in [24], 8.31%; with Streptomyces scabiei [25], 5.01%. The “diameter of the inhibition zone (DIZ)” value (in the experiment on Streptomyces alboniger [6]; in the experiment with Streptomyces alboniger [7]; in experiment [12]; with Streptomyces scabiei [19]) was “inactive” throughout. Further, the zone of inhibition at 4 µg/disc in the experiment with Streptomyces alboniger [8] (setting [26]) worked out at 35 mm; in experiment [13], 31 mm; in the experiment with Streptomyces scabiei [16], 19 mm. The zone of inhibition at 0.4 µg/disc in experiment [11] was 20 mm; in the experiment on Streptomyces scabiei [17], 11 mm. In addition, the zone of inhibition at 0.04 µg/disc in the experiment on Streptomyces scabiei [14] amounted to 27 mm.

Turning to `C=C(NC(=O)C(=C)NC(=O)c1csc(C2=N[C@@H]3c4csc(n4)[C@H]4NC(=O)c5csc(n5)[C@H]([C@](C)(O)[C@@H](C)O)NC(=O)[C@H]5CSC(=N5)/C(=C/C)NC(=O)[C@H]([C@@H](C)O)NC(=O)c5csc(n5)[C@]3(CC2)NC(=O)[C@H](C)NC(=O)C(=C)NC(=O)[C@H](C)NC(=O)[C@H]([C@@H](C)CC)N[C@@H]2C=Cc3c([C@H](C)O)cc(nc3[C@H]2O)C(=O)O[C@@H]4C)n1)C(N)=O` [THIOSTREPTON], the “diameter of the inhibition zone (DIZ)” value (in the experiment with Streptomyces alboniger [6]; in the experiment with Streptomyces alboniger [7]; with Streptomyces alboniger [8]; in experiment [12]; with Streptomyces scabiei [14]; with Streptomyces scabiei [17]) was “inactive” each time. In addition, the zone of inhibition at 0.4 µg/disc was 14 mm with Streptomyces alboniger [18] and 11 mm in experiment [11]. Further, the zone of inhibition at 4 µg/disc in experiment [10] turned out to be 13 mm; in [13] it was 24 mm; in the experiment with Streptomyces scabiei [16], 12 mm.
